target: human adenosine A2a receptor (Homo sapiens (Human), UniProt P29274); experiment: A2a receptor binding affinity, [3H]-NECA radioligand binding test; settings: [3H]-NECA 37 nM; membrane from HEK-293 cells transfected with human adenosine A2a receptor
Method in brief: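 IC50 values (μM) come from displacement of [3H]-NECA, used at 37 nM final, on human A2a receptor membranes from transfected HEK-293 cells. Incubation lasted one hour at room temperature in Tris/MgCl2/EDTA buffer, pH 7.4; filter-bound radioactivity was counted by scintillation.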

Chain of human adenosine A2a receptor (P29274 whole entry): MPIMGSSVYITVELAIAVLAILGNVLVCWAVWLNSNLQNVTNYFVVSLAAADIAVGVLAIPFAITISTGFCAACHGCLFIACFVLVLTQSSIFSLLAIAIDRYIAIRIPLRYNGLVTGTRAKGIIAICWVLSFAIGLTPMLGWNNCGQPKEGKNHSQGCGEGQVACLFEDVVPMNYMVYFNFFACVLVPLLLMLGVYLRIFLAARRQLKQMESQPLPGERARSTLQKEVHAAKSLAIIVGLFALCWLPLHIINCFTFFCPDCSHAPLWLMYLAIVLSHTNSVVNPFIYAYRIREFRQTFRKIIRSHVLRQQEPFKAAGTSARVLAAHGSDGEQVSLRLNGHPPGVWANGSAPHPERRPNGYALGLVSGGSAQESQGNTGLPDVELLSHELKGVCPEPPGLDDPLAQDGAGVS

**Q.** For `CN1CCN(C(=O)[C@@H]2CCCN2c2nc(N)n3nc(-c4ccco4)nc3n2)CC1=O` [Example 145, 4-((7-amino-2-(furan-2-yl)-[1,2,4]triazolo[1,5-a][1,3,5]triazin-5-yl)-L-prolyl)-1-methylpiperazin-2-one], which IC50 is on record?
**A.** Its IC50 is 13 nM.

**Q.** For `C[C@H](Nc1nc(N)n2nc(-c3ccco3)nc2n1)C(=O)N1CCC(C2CCN(CC(C)(F)F)CC2)CC1` [Example 335, (S)-2-((7-amino-2-(furan-2-yl)-[1,2,4]triazolo[1,5-a][1,3,5]triazin-5-yl)amino)-1-(1′-(2,2-difluoropropyl)-[4,4′-bipiperidin]-1-yl)propan-1-one], which IC50 is on record?
**A.** Its IC50 is 1 nM.

**Q.** For `Nc1nc(N2CCC[C@H]2C(=O)N2CCN(Cc3ccccc3)CC2)nc2nc(-c3ccco3)nn12` [Example 27, (S)-(1-(7-amino-2-(furan-2-yl)-[1,2,4]triazolo[1,5-a][1,3,5]triazin-5-yl)pyrrolidin-2-yl)(4-benzylpiperazin-1-yl)methanone], which IC50 is on record?
**A.** The IC50 was 7 nM.

**Q.** How did the IC50 turn out when `Nc1nc(N2CCC[C@H]2C(=O)N2CCN(CC(F)F)CC2)nc2sc(-c3ccco3)nc12` [Example 258, (S)-(1-(7-amino-2-(furan-2-yl)thiazolo[5,4-d]pyrimidin-5-yl)pyrrolidin-2-yl)(4-(2,2-difluoroethyl)piperazin-1-yl)methanone] was run?
**A.** The IC50 was 8 nM.

**Q.** For `Nc1nc(N2CCC[C@H]2C(=O)N2CCC(C(=O)Nc3ccccc3)CC2)nc2nc(-c3ccco3)nn12` [Example 78, 1-((7-amino-2-(furan-2-yl)-[1,2,4]triazolo[1,5-a][1,3,5]triazin-5-yl)-L-prolyl)-N-phenylpiperidin-4-carboxamide], which IC50 is on record?
**A.** Its IC50 is 14 nM.

**Q.** Which IC50 does the source give for `Nc1nc(N2CCC[C@H]2C(=O)N2CCN(CC3(C(F)(F)F)CCCCC3)CC2)nc2nc(-c3ccco3)nn12` [Example 286] here?
**A.** The IC50 was 2 nM.

**Q.** `Nc1nc(N2CCC[C@H]2C(=O)N2CCN(CC(F)(F)C(F)F)CC2)nc2sc(-c3ccco3)nc12` [Example 260, (S)-(1-(7-amino-2-(furan-2-yl)thiazolo[5,4-d]pyrimidin-5-yl)pyrrolidin-2-yl)(4-(2,2,3,3-tetrafluoropropyl)piperazin-1-yl)methanone] was tested. Which IC50 did it give?
**A.** Its IC50 is 0.9 nM.

**Q.** For `C[C@H](Nc1nc(N)n2nc(-c3ccco3)nc2n1)C(=O)N1CCC(C2CCN(CC(C)(C)F)CC2)CC1` [Example 332, (S)-2-((7-amino-2-(furan-2-yl)-[1,2,4]triazolo[1,5-a][1,3,5]triazin-5-yl)amino)-1-(1′-(2-fluoro-2-methylpropyl)-[4,4′-bipiperidin]-1-yl)propan-1-one], which IC50 is on record?
**A.** Its IC50 is 5 nM.

**Q.** How did the IC50 turn out when `Nc1nc(N2CCC[C@H]2C(=O)N2CC3CCC(C2)N3C(=O)c2ccccc2)nc2nc(-c3ccco3)nn12` [Example 157, (3-((7-amino-2-(furan-2-yl)-[1,2,4]triazolo[1,5-a][1,3,5]triazin-5-yl)-L-prolyl)-3,8-diazabicyclo[3.2.1]octan-8-yl)(phenyl)methanone] was run?
**A.** The IC50 was 6 nM.

**Q.** Which IC50 does the source give for `CCC(O)(CC)CN1CCN(C(=O)[C@@H](Nc2nc(N)n3nc(-c4ccco4)nc3n2)C(C)C)CC1` [Example 348, (S)-2-((7-amino-2-(furan-2-yl)-[1,2,4]triazolo[1,5-a][1,3,5]triazin-5-yl)amino)-1-(4-(2-ethyl-2-hydroxybutyl)piperazin-1-yl)-3-methylbutan-1-one] here?
**A.** The IC50 was 5 nM.

**Q.** `Nc1nc(N2CCCC[C@H]2C(=O)N2CCN(Cc3ccc(F)cc3F)CC2)nc2nc(-c3ccco3)nn12` [Example 29, (S)-(1-(7-amino-2-(furan-2-yl)-[1,2,4]triazolo[1,5-a][1,3,5]triazin-5-yl)piperidin-2-yl)(4-(2,4-difluorobenzyl)piperazin-1-yl)methanone] was tested. Which IC50 did it give?
**A.** Its IC50 is 8 nM.

**Q.** With `Cc1ccc(-c2nc3nc(N4CCC[C@H]4C(=O)N4CCC(c5ccc(F)cc5F)CC4)nc(N)n3n2)o1` [Example 201, (S)-(1-(7-amino-2-(5-methylfuran-2-yl)-[1,2,4]triazolo[1,5-a][1,3,5]triazin-5-yl)pyrrolidin-2-yl)(4-(2,4-difluorophenyl)piperidin-1-yl) methanone] as the molecule, how does the IC50 read?
**A.** The IC50 was 5 nM.

**Q.** `CCOC(=O)c1ccc(N2CCN(C(=O)[C@@H]3CCCN3c3nc(N)n4nc(-c5ccco5)nc4n3)CC2)cc1` [Example 123, Ethyl 4-(4-((7-amino-2-(furan-2-yl)-[1,2,4]triazolo[1,5-a][1,3,5]triazin-5-yl)-L-prolyl)piperazin-1-yl)benzoate] was tested. Which IC50 did it give?
**A.** Its IC50 is 0.5 nM.

**Q.** `Nc1nc(N[C@H](C(=O)N2CCN(c3ccc(F)cc3F)CC2)c2ccccc2)nc2nc(-c3ccco3)nn12` [Example 7, (S)-2-((7-amino-2-(furan-2-yl)-[1,2,4]triazolo[1,5-a][1,3,5]triazin-5-yl)amino)-1-(4-(2,4-difluorophenyl)piperazin-1-yl)-2-phenylethan-1-one] was tested. Which IC50 did it give?
**A.** Its IC50 is 6.72 nM.

**Q.** How did the IC50 turn out when `Cc1ccc(-c2nc3nc(N4CCC[C@H]4C(=O)N4CCN(CCCC(F)(F)F)CC4)nc(N)n3n2)o1` [Example 300, (S)-(1-(7-amino-2-(5-methylfuran-2-yl)-[1,2,4]triazolo[1,5-a][1,3,5]triazin-5-yl)pyrrolidin-2-yl)(4-(4,4,4-trifluorobutyl)piperazin-1-yl)methanone] was run?
**A.** Its IC50 is 9 nM.

**Q.** With `CCC(F)(CC)CN1CCN(C(=O)[C@@H]2CCCN2c2nc(N)n3nc(-c4ccco4)nc3n2)CC1` [Example 43, (S)-(1-(7-amino-2-(furan-2-yl)-[1,2,4]triazolo[1,5-a][1,3,5]triazin-5-yl)pyrrolidin-2-yl)(4-(2-ethyl-2-fluorobutyl)piperazin-1-yl)methanone] as the molecule, how does the IC50 read?
**A.** Its IC50 is 11 nM.

**Q.** `Nc1nc(N2CCC[C@H]2C(=O)N2CCN(C3CCCCC3)CC2)nc2nc(-c3ccco3)nn12` [Example 54] was tested. Which IC50 did it give?
**A.** Its IC50 is 6 nM.

**Q.** Which IC50 does the source give for `Nc1nc(N2CC[C@H]2C(=O)N2CCC(C3CCN(CC(F)(F)F)CC3)CC2)cc2nc(-c3ccco3)nn12` [Example 377, (S)-(1-(5-amino-2-(furan-2-yl)-[1,2,4]triazolo[1,5-c]pyrimidin-7-yl)azetidin-2-yl)(1′-(2,2,2-trifluoroethyl)-[4,4′-bipiperidin]-1-yl)methanone] here?
**A.** Its IC50 is 0.1 nM.

**Q.** How did the IC50 turn out when `Nc1nc(N[C@@H](Cc2ccccc2)C(=O)N2CCN(S(=O)(=O)c3ccccc3)CC2)nc2nc(-c3ccco3)nn12` [Example 6, (S)-2-((7-amino-2-(furan-2-yl)-[1,2,4]triazolo[1,5-a][1,3,5]triazin-5-yl)amino)-3-phenyl-1-(4-(phenylsulfonyl)piperazin-1-yl)propan-1-one] was run?
**A.** The IC50 was 0.214 nM.

**Q.** `CC(C)(O)CC(=O)N1CCN(C(=O)[C@@H]2CCCN2c2nc(N)c3nc(-c4ccco4)sc3n2)CC1` [Example 262, 1-(4-((7-amino-2-(furan-2-yl)thiazolo[5,4-d]pyrimidin-5-yl)-L-prolyl)piperazin-1-yl)-3-hydroxy-3-methylbutan-1-one] was tested. Which IC50 did it give?
**A.** The IC50 was 5 nM.

**Q.** `Nc1nc(N2CCC[C@H]2C(=O)N2CCN(CCN3CCOCC3)CC2)nc2nc(-c3ccco3)nn12` [Example 53, 4-(2-(4-((7-amino-2-(furan-2-yl)-[1,2,4]triazolo[1,5-a][1,3,5]triazine-5-yl)-L-prolyl)piperazin-1-yl)ethyl)morpholine] was tested. Which IC50 did it give?
**A.** The IC50 was 8 nM.

**Q.** For `Cc1ccc(-c2nc3nc(N4CC[C@H]4C(=O)N4CCN(C(=O)CC(C)(C)O)CC4)nc(N)n3n2)o1` [Example 315, (S)-1-(4-(1-(7-amino-2-(5-methylfuran-2-yl)-[1,2,4]triazolo[1,5-a][1,3,5]triazin-5-yl)azetidine-2-carbonyl)piperazin-1-yl)-3-hydroxy-3-methylbutan-1-one], which IC50 is on record?
**A.** The IC50 was 16 nM.

**Q.** How did the IC50 turn out when `Nc1nc(N2CCC[C@H]2C(=O)N2CCN(S(=O)(=O)CCOc3ccccc3)CC2)nc2nc(-c3ccco3)nn12` [Example 70, (S)-(1-(7-amino-2-(furan-2-yl)-[1,2,4]triazolo[1,5-a][1,3,5]triazin-5-yl)pyrrolidin-2-yl)(4-((2-phenoxyethyl)sulfonyl)piperazin-1-yl)methanone] was run?
**A.** Its IC50 is 4 nM.

**Q.** How did the IC50 turn out when `CC(C)(C)[C@H](Nc1nc(N)n2nc(-c3ccco3)nc2n1)C(=O)N1CCN(c2ccc(F)cc2F)CC1` [Example 165, (S)-2-((7-amino-2-(furan-2-yl)-[1,2,4]triazolo[1,5-a][1,3,5]triazin-5-yl)amino)-1-(4-(2,4-difluorophenyl)piperazin-1-yl)-3,3-dimethylbutan-1-one] was run?
**A.** Its IC50 is 0.6 nM.

**Q.** Which IC50 does the source give for `Cc1ccc(-c2nc3nc(N4CCC[C@H]4C(=O)N4CCN(c5ccccc5C(F)(F)F)CC4)nc(N)n3n2)o1` [Example 200, (S)-(1-(7-amino-2-(5-methylfuran-2-yl)-[1,2,4]triazolo[1,5-a][1,3,5]triazin-5-yl)pyrrolidin-2-yl)(4-(2-(trifluoromethyl)phenyl)piperazin-1-yl)methanone] here?
**A.** The IC50 was 1 nM.

**Q.** `C[C@@H]1CN(C(=O)c2ccccc2)CCN1C(=O)[C@@H]1CCCN1c1nc(N)n2nc(-c3ccco3)nc2n1` [Example 159, ((R)-4-((7-amino-2-(furan-2-yl)-[1,2,4]triazolo[1,5-a][1,3,5]triazin-5-yl)-L-prolyl)-3-methylpiperazin-1-yl)(phenyl)methanone] was tested. Which IC50 did it give?
**A.** Its IC50 is 9 nM.

**Q.** `Nc1nc(N2CCC[C@H]2C(=O)N2CCC(N3CC(F)(F)C3)CC2)nc2nc(-c3ccco3)nn12` [Example 390, (S)-(1-(7-amino-2-(furan-2-yl)-[1,2,4]triazolo[1,5-a][1,3,5]triazin-5-yl)pyrrolidin-2-yl)(4-(3,3-difluoroazetidin-1-yl)piperidin-1-yl)methanone] was tested. Which IC50 did it give?
**A.** The IC50 was 8 nM.

**Q.** Which IC50 does the source give for `C[C@H](Nc1nc(N)n2nc(-c3ccco3)nc2n1)C(=O)N1CCN(Cc2ccccc2F)CC1` [Example 22, (S)-2-((7-amino-2-(furan-2-yl)-[1,2,4]triazolo[1,5-a][1,3,5]triazin-5-yl)amino)-1-(4-(2-fluorobenzyl)piperazin-1-yl)propan-1-one] here?
**A.** Its IC50 is 11 nM.

**Q.** How did the IC50 turn out when `Nc1nc(N[C@@H](CO)C(=O)N2CCN(Cc3ccccc3)CC2)nc2nc(-c3ccco3)nn12` [Example 233, (S)-2-((7-amino-2-(furan-2-yl)-[1,2,4]triazolo[1,5-a][1,3,5]triazin-5-yl)amino)-1-(4-benzylpiperazin-1-yl)-3-hydroxypropan-1-one] was run?
**A.** Its IC50 is 14 nM.
